Reference: US20140179664A1, “Heterocyclyl Pyrimidine Analogues As JAK Inhibitors” (Cellzome Limited, priority 2011, published 2014)

Experiments:
JAK1 = molecular target: T1, JAK1 (Homo sapiens, UniProt P23458); assay: Kinobeads assay, JAK1; type: binding; settings: mixed Molt4/Ramos lysate, read-out: Inhibition values (IC50) JAK1
T1 construct: endogenous in cells; host or cells: Molt4 (ATCC CRL-1582) and Ramos (ATCC CRL-1596), mixed lysate 1:2
Experimental: After the incubation time the beads with captured proteins were separated from the lysate. Bound proteins were then eluted and the presence of JAK1, JAK2, JAK3 and TYK2 was detected and quantified using specific antibodies in a dot blot procedure and the Odyssey infrared detection system. Dose response curves for individual kinases were generated and IC50 values calculated.
(§1) 5×DP buffer: 250 mM Tris-HCl pH 7.4, 25% Glycerol, 7.5 mM MgCl2, 750 mM NaCl, 5 mM Na3VO4; filter the 5×DP buffer through a 0.22 μm filter and store in aliquots at −80° C. The 5×DP buffer is diluted with H2O to 1×DP buffer containing 1 mM DTT and 25 mM NaF.
Stock solutions of test compounds were prepared in DMSO. […] Starting with this solution a 1:3 dilution series (9 steps) was prepared. For control experiments (no test compound) a buffer containing 2% DMSO was used.
Cells were homogenized in a Potter S homogenizer in lysis buffer: 50 mM Tris-HCl, 0.8% NP40, 5% glycerol, 150 mM NaCl, 1.5 mM MgCl2, 25 mM NaF, 1 mM sodium vanadate, 1 mM DTT, pH 7.5. […] The material was dounced 10 times using a mechanized POTTER S, transferred to 50 mL falcon tubes, incubated for 30 minutes on ice and spun down for 10 minutes at 20,000 g at 4° C. (10,000 rpm in Sorvall SLA600, precooled). […] (33.500 rpm in Ti50.2, precooled). The supernatant was transferred again to a fresh 50 mL falcon tube, the protein concentration was determined by a Bradford assay (BioRad) and samples containing 50 mg of protein per aliquot were prepared. The samples were immediately used for experiments or frozen in liquid nitrogen and stored frozen at −80° C.
Cell lysate (approximately 50 mg protein per plate) was thawed in a water bath at room temperature and then stored on ice. […] The diluted cell lysate was stored on ice. Mixed Molt4/Ramos lysate was prepared by combining one volume of Molt4 lysate and two volumes of Ramos lysate (ratio 1:2).
Plates were sealed and incubated for 3 hours in a cold room on a plate shaker (Heidolph tiramax 1000) at 750 rpm. Afterwards the plate was washed 3 times with 230 μL washing buffer (1×DP 0.4% NP40). […] The eluate was frozen quickly at −80° C. and stored at −20° C.
Afterwards the membrane was washed twice for 10 minutes with PBS buffer containing 0.2% Tween 20 at room temperature. […] Afterwards the membrane was washed twice for 10 minutes each with 1×PBS buffer containing 0.2% Tween 20 at room temperature. Then the membrane was rinsed once with PBS buffer to remove residual Tween 20. The membrane was kept in PBS buffer at 4° C. and then scanned with the Odyssey instrument. Fluorescence signals were recorded and analysed according to the instructions of the manufacturer.

TYK2 = molecular target: T2, TYK2 (Homo sapiens, UniProt P29597); assay: Kinobeads assay, TYK2; type: binding; settings: mixed Molt4/Ramos lysate, read-out: Inhibition values (IC50) TYK2
T2 construct: endogenous in cells; host or cells: Molt4 (ATCC CRL-1582) and Ramos (ATCC CRL-1596), mixed lysate 1:2
Experimental: The compounds of the present invention as described in the previous examples were tested in a Kinobeads™ assay as described for ZAP-70 (WO-A 2007/137867). Briefly, test compounds (at various concentrations) and the affinity matrix with the immobilized aminopyrido-pyrimidine ligand 24 were added to cell lysate aliquots and allowed to bind to the proteins in the lysate sample. After the incubation time the beads with captured proteins were separated from the lysate. Bound proteins were then eluted and the presence of JAK1, JAK2, JAK3 and TYK2 was detected and quantified using specific antibodies in a dot blot procedure and the Odyssey infrared detection system. Dose response curves for individual kinases were generated and IC50 values calculated. Kinobeads™ assays for ZAP-70 (WO-A 2007/137867) and for kinase selectivity profiling (WO-A 2006/134056) have been previously described.
The affinity matrix was washed two times with 15 mL of lx DP buffer containing 0.2% NP40 (IGEPAL® CA-630, Sigma, #13021) and then resuspended in 1×DP buffer containing 0.2% NP40 (3% beads slurry).
as §1
Stock solutions of test compounds were prepared in DMSO. In a 96 well plate […] solution of diluted test compounds at 5 mM in DMSO were prepared. Starting with this solution a 1:3 dilution series (9 steps) was prepared. For control experiments (no test compound) a buffer containing 2% DMSO was used.
Molt4 cells (ATCC catalogue number CRL-1582) and Ramos cells (ATCC catalogue number CRL-1596) were grown in 1 L Spinner flasks (Integra Biosciences, #182101) in suspension in RPMI 1640 medium (Invitrogen, #21875-034) supplemented with 10% Fetal Bovine Serum (Invitrogen) at a density between 0.15×10^6 and 1.2×10^6 cells/mL. Cells were harvested by centrifugation, washed once with 1×PBS buffer (Invitrogen, #14190-094) and cell pellets were frozen in liquid nitrogen and subsequently stored at −80° C. Cells were homogenized in a Potter S homogenizer in lysis buffer: 50 mM Tris-HCl, 0.8% NP40, 5% glycerol, 150 mM NaCl, 1.5 mM MgCl2, 25 mM NaF, 1 mM sodium vanadate, 1 mM DTT, pH 7.5. One complete EDTA-free tablet (protease inhibitor cocktail, Roche Diagnostics, 1873580) per 25 mL buffer was added. The material was dounced 10 times using a mechanized POTTER S, transferred to 50 mL falcon tubes, incubated for 30 minutes on ice and spun down for 10 minutes at 20,000 g at 4° C. (10,000 rpm in Sorvall SLA600, precooled). The supernatant was transferred to an ultracentrifuge (UZ)-polycarbonate tube (Beckmann, 355654) and spun for 1 hour at 100.000 g at 4° C. (33.500 rpm in Ti50.2, precooled). The supernatant was transferred again to a fresh 50 mL falcon tube, the protein concentration was determined by a Bradford assay (BioRad) and samples containing 50 mg of protein per aliquot were prepared. The samples were immediately used for experiments or frozen in liquid nitrogen and stored frozen at −80° C.
Cell lysate (approximately 50 mg protein per plate) was thawed in a water bath at room temperature and then stored on ice. To the thawed cell lysate 1×DP 0.8% NP40 buffer containing protease inhibitors (1 tablet for 25 mL buffer; EDTA-free protease inhibitor cocktail; Roche Diagnostics 1873580) was added in order to reach a final protein concentration of 10 mg/mL total protein. The diluted cell lysate was stored on ice. Mixed Molt4/Ramos lysate was prepared by combining one volume of Molt4 lysate and two volumes of Ramos lysate (ratio 1:2).
To a 96 well filter plate (Multiscreen HTS, BV Filter Plates, Millipore #MSBVN1250) were added per well: 100 μL affinity matrix (3% beads slurry), […], of compound solution, and 50 μL of diluted lysate. […]

T2 sequence (P29597 whole entry): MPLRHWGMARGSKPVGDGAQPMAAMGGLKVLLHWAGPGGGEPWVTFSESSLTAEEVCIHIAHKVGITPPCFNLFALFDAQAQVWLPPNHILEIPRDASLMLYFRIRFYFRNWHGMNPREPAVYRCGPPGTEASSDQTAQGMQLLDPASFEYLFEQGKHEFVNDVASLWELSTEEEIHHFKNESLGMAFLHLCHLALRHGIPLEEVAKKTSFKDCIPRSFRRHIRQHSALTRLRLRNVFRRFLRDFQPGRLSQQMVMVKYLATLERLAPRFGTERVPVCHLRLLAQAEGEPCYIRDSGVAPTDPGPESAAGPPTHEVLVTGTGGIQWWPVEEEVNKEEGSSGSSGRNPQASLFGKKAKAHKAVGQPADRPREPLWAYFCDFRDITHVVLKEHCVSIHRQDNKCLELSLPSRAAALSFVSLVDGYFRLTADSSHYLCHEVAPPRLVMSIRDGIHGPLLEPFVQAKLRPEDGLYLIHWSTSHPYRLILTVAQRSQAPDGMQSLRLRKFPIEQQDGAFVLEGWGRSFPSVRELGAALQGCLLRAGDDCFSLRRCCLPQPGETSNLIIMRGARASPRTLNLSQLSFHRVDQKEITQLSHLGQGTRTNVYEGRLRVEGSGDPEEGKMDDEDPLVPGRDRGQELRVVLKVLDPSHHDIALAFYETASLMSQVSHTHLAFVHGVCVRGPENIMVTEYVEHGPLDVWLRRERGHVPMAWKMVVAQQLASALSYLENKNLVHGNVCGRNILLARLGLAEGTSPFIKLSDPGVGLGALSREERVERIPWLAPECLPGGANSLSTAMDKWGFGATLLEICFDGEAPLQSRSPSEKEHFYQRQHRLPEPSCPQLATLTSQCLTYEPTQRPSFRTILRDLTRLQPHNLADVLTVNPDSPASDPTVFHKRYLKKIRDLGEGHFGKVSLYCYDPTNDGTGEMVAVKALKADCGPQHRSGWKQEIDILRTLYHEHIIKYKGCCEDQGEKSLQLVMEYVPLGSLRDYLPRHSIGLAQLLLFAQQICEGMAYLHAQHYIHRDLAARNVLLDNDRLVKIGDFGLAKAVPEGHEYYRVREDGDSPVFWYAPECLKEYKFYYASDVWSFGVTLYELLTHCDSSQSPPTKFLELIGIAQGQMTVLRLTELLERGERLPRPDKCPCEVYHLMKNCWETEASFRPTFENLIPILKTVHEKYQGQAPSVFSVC
T1 sequence (P23458 whole entry): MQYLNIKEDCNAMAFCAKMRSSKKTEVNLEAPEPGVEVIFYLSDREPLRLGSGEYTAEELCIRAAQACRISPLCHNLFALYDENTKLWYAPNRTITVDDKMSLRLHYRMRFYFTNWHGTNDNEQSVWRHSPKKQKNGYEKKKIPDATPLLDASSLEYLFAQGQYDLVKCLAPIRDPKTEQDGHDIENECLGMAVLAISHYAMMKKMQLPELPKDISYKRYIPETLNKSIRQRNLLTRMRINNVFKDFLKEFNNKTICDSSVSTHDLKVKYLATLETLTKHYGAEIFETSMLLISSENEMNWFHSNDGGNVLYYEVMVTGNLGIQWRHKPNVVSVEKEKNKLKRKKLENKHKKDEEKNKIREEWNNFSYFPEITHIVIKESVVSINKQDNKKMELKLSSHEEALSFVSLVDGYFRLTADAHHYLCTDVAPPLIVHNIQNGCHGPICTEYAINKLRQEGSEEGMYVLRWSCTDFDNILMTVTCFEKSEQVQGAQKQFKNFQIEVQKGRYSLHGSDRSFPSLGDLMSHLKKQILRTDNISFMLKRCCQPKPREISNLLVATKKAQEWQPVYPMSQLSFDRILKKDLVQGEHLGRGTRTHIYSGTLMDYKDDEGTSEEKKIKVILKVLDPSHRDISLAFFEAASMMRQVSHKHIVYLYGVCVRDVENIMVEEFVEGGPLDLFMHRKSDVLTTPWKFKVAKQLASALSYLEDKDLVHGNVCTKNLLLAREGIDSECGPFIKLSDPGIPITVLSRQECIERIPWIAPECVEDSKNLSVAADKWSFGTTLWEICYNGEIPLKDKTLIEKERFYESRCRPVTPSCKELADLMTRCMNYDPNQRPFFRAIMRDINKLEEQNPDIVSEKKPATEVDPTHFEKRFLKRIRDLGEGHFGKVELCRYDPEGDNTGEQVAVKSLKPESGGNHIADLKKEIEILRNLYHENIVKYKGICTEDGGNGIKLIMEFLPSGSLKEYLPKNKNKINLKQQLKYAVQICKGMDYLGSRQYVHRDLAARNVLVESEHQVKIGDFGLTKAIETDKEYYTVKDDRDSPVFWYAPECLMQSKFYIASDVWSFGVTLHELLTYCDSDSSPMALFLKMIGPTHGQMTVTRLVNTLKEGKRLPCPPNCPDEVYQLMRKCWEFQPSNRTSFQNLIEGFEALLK

SMILES	IC50 (JAK1) [µM]	IC50 (TYK2) [µM]
NC(=O)Cn1cc(Nc2ncc(Cl)c(N[C@H](CO)c3cc(F)ccc3F)n2)cn1 [Compound 140]	< 0.1	0.1 to 1
Cn1cc(Nc2ncc(Cl)c(N[C@H](CO)c3cc(F)cc(-c4cnn(C)c4)c3)n2)cn1 [Compound 137]	1 to 10	1 to 10
OCCn1cc(Nc2ncc(Cl)c(N[C@H](CO)c3cc(F)cc(F)c3)n2)cn1 [Compound 143]	< 0.1	0.1 to 1
CCC(Nc1nc(Nc2cnn(C)c2)ncc1Cl)c1ccccc1F (stereo not shown) [Compound 125]	1 to 10	1 to 10
O=C(Cn1cc(Nc2ncc(F)c(N[C@H](CO)c3ccccc3)n2)cn1)N1CCOCC1 [Compound 112]	1 to 10	0.1 to 1
CNC(=O)Cn1cc(Nc2ncc(Cl)c(N[C@H](CO)c3cccc(OC)c3)n2)cn1 [Compound 99]	1 to 10	1 to 10
OCCn1cc(Nc2ncc(Cl)c(NC(CO)c3cc(F)cc(F)c3)n2)cn1 (stereo not shown) [Compound 122]	0.1 to 1	0.1 to 1
CNC(=O)Cn1cc(Nc2ncc(Cl)c(NC(CO)c3ccccc3C(F)(F)F)n2)cn1 (stereo not shown) [Compound 131]	1 to 10	0.1 to 1
OCCn1cc(Nc2ncc(F)c(N[C@H](CO)c3cc(F)cc(F)c3)n2)cn1 [Compound 159]	0.1 to 1	0.1 to 1
CNC(=O)Cn1cc(Nc2ncc(Cl)c(NC(CO)c3cc(F)cc(F)c3)n2)cn1 (stereo not shown) [Compound 123]	0.1 to 1	1 to 10
CC[C@@H](Nc1nc(Nc2cnn(C)c2)ncc1Cl)c1ccccc1 [Compound 5]	1 to 10	≥ 10
COc1cccc([C@@H](CO)Nc2nc(Nc3cnn(C(C)C)c3)ncc2Cl)c1 [Compound 106]	> 10	1 to 10
COc1cccc([C@@H](CO)Nc2nc(Nc3cnn(CC(=O)N4CCOCC4)c3)ncc2Cl)c1 [Compound 102]	0.1 to 1	0.1 to 1
CC(C)NC(=O)Cn1cc(Nc2ncc(Cl)c(N[C@H](CO)c3ccccc3F)n2)cn1 [Compound 115]	0.1 to 1	0.1 to 1
Cc1cnc(Nc2cnn(C)c2)nc1N[C@H](CO)c1cc(F)cc(F)c1 [Compound 164]	0.1 to 1	1 to 10
Cc1cnc(Nc2cnn(CC(=O)N(C)C)c2)nc1N[C@H](CO)c1ccccc1 [Compound 134]	0.1 to 1	1 to 10
Cn1cc(Nc2ncc(Cl)c(N[C@H](CO)c3cccc(N4CCOCC4=O)c3)n2)cn1 [Compound 138]	1 to 10	1 to 10
NC(=O)Cn1cc(Nc2ncc(F)c(N[C@H](CO)c3cc(F)cc(F)c3)n2)cn1 [Compound 160]	0.1 to 1	0.1 to 1
NC(=O)Cn1cc(Nc2ncc(Cl)c(NC(CO)c3ccccc3Cl)n2)cn1 (stereo not shown) [Compound 118]	0.1 to 1	0.1 to 1

SMILES	IC50 (JAK1) [µM]	IC50 (TYK2) [µM]
Cn1cc(Nc2ncc(Cl)c(N[C@H](CO)c3cccc(-c4cnn(C)c4)c3)n2)cn1 [Compound 136]	> 10	≥ 10
OCCn1cc(Nc2ncc(Cl)c(N[C@H](CO)c3ccccc3)n2)cn1 [Compound 9]	0.1 to 1	1 to 10
O=C(NCC(F)(F)F)C(Nc1nc(Nc2cnn(CCO)c2)ncc1Cl)c1ccccc1F (stereo not shown) [Compound 128]	1 to 10	1 to 10
Cn1cc(Nc2ncc(Cl)c(NC(C)(CO)c3ccccc3)n2)cn1 (stereo not shown) [Compound 7]	1 to 10	1 to 10
C[C@@H](CO)NC(=O)Cn1cc(Nc2ncc(Cl)c(N[C@H](CO)c3ccccc3F)n2)cn1 [Compound 116]	0.1 to 1	0.1 to 1
CNC(=O)Cn1cc(Nc2ncc(Cl)c(NC(CO)c3cc(F)ccc3F)n2)cn1 (stereo not shown) [Compound 130]	< 0.1	0.1 to 1
CC(C)n1cc(Nc2ncc(Cl)c(N[C@H](CO)c3cccnc3)n2)cn1 [Compound 107]	1 to 10	1 to 10
CNC(=O)Cn1cc(Nc2ncc(Cl)c(N[C@H](CO)c3ccccc3OC)n2)cn1 [Compound 98]	0.1 to 1	0.1 to 1
OCCn1cc(Nc2ncc(Cl)c(NC(CO)c3ccccc3Cl)n2)cn1 (stereo not shown) [Compound 120]	0.1 to 1	0.1 to 1
OC[C@@H](Nc1nc(Nc2cnn(CC(F)F)c2)ncc1Cl)c1ccccc1F [Compound 165]	0.1 to 1	1 to 10
CNC(=O)Cn1cc(Nc2ncc(F)c(N[C@H](CO)c3cc(F)cc(F)c3)n2)cn1 [Compound 161]	0.1 to 1	0.1 to 1
CC(C)OCCn1cc(Nc2ncc(Cl)c(N[C@H](CO)c3ccccc3)n2)cn1 [Compound 114]	1 to 10	1 to 10
Cn1cc(Nc2ncc(Cl)c(NC(CO)c3cccc(N4CCOCC4=O)c3)n2)cn1 (stereo not shown) [Compound 124]	1 to 10	1 to 10
CNC(=O)Cn1cc(Nc2ncc(Cl)c(NC(CO)c3ccccc3Cl)n2)cn1 (stereo not shown) [Compound 119]	0.1 to 1	1 to 10
OCCn1cc(Nc2ncc(F)c(N[C@H](CO)c3cc(F)ccc3F)n2)cn1 [Compound 147]	0.1 to 1	0.1 to 1
CC(C)n1cc(Nc2ncc(Cl)c(N[C@H](CO)c3ccccc3F)n2)cn1 [Compound 110]	1 to 10	1 to 10
Cn1cc(Nc2ncc(F)c(N[C@H](CO)c3cc(F)cc(-c4cnn(C)c4)c3)n2)cn1 [Compound 150]	1 to 10	≥ 10
Cn1cc(Nc2ncc(Cl)c(NC(CO)c3cc(F)ccc3F)n2)cn1 (stereo not shown) [Compound 129]	0.1 to 1	0.1 to 1
Cn1cc(Nc2ncc(Cl)c(NC(CO)c3cc(F)cc(F)c3)n2)cn1 (stereo not shown) [Compound 121]	0.1 to 1	1 to 10
